Results as given in publication PMC10798554, “Interaction of PINK1 with nucleotides and kinetin” (Science Advances, 2024).

Legend:
Type in all cases: biochemical
[1] = molecular target: T1, PhPINK1 (residues 115 to 575) (Pediculus humanus, UniProt E0W1I1); experiment: ubiquitin phosphorylation, Phos-tag SDS-PAGE; details: 1 mM ATP, 15 uM ubiquitin, 10 mM MgCl2, pH 7.4, 22 C
T1 construct: gene Pink1; residues 115-575, kinase domain with N- and C-terminal extensions; E. coli Rosetta2; N-terminal GST tag with 3C protease site in vector; autophosphorylated monomer for thermal shift, lambda-phosphatase-treated homo-dodecamer (six dimers) for cryo-EM
T1 sequence (E0W1I1 115-575): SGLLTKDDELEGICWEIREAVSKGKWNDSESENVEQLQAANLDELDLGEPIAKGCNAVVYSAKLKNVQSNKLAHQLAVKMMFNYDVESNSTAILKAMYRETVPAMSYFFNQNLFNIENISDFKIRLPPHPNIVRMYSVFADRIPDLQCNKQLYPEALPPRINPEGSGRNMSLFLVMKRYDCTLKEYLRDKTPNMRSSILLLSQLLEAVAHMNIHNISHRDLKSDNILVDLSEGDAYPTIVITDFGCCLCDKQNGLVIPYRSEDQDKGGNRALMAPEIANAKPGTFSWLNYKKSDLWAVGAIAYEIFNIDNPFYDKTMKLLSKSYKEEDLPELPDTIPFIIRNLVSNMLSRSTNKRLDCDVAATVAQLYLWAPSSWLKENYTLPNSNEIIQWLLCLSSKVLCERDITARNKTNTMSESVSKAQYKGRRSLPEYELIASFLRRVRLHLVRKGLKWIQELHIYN

HsPINK1 [2] = molecular target: T2, HsPINK1 (Homo sapiens, UniProt Q9BXM7, M318A); experiment: ubiquitin phosphorylation by heavy membranes, pSer65 Western blot; details: 15 uM ubiquitin, pH 7.4, 30 C
T2 construct: gene PINK1; HsPINK1 expressed transiently (pcDNA5d3) in HeLa PINK1-/- cells; heavy membrane fraction after oligomycin/antimycin treatment
T2 sequence (Q9BXM7 78-581 M318A): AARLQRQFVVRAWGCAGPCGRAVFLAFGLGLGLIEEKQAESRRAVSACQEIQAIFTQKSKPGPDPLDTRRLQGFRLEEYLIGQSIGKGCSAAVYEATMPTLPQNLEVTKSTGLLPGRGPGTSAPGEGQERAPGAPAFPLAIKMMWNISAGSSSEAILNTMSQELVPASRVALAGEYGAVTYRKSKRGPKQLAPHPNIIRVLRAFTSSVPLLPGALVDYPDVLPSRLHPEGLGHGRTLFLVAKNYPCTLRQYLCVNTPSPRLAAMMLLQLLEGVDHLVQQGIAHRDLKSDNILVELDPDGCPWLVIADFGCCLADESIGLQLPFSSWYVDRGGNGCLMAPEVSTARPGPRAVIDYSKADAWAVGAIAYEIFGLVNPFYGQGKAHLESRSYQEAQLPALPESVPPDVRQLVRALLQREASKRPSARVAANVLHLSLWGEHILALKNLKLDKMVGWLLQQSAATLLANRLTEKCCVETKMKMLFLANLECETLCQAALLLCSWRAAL

HsPINK1 [3] = molecular target: T3, HsPINK1 (Homo sapiens, UniProt Q9BXM7, M318G); experiment: as above; details: 1 mM KTP, 15 uM ubiquitin, pH 7.4, 30 C
T3 construct: gene PINK1; HsPINK1 expressed transiently (pcDNA5d3) in HeLa PINK1-/- cells; heavy membrane fraction after oligomycin/antimycin treatment
T3 sequence (Q9BXM7 78-581 M318G): as the sequence (Q9BXM7 78-581 M318A) above, with A241G counted along it

Row | Compound | ubiquitin phosphorylation, Phos-tag SDS-PAGE [1] | ubiquitin phosphorylation by heavy membranes, pSer65 Western blot (HsPINK1 [2]; 1 mM ATP) | ubiquitin phosphorylation by heavy membranes, pSer65 Western blot (HsPINK1 [3]) | ubiquitin phosphorylation by heavy membranes, pSer65 Western blot (HsPINK1 [2]; 1 mM KTP)
1 | Nc1ncnc2c1ncn2[C@@H]1O[C@H](COP(=O)(O)OP(=O)(O)OP(=O)(O)O)[C@@H](O)[C@H]1O [ATP] | Time course ubiquitin phosphorylation assay using WT PhPINK1 in the presence of ATP | HsPINK1 M318A, is active with both ATP and KTP | – | –
2 | O=P(O)(O)OP(=O)(O)OP(=O)(O)OC[C@H]1O[C@@H](n2cnc3c(NCc4ccco4)ncnc32)[C@H](O)[C@@H]1O [KTP] | – | – | both mutants were able to use KTP instead of ATP to generate phospho-ubiquitin | both mutants were able to use KTP instead of ATP to generate phospho-ubiquitin
